Data on 1 molecule can be found in PMC6017115, “Inhibitory Effect of Sauchinone on UDP-Glucuronosyltransferase (UGT) 2B7 Activity” (Molecules : A Journal of Synthetic Chemistry and Natural …, 2018).

Structures are written as SMILES.

The target of data set [1] is T1, UGT1A3 (Homo sapiens, UniProt P35503).
T1 construct: The reaction mixture containing 0.25 mg/mL protein of HLM; tissue Corning Life Sciences 452156; host or cells: pooled human liver microsomes, 50 donors
T1 sequence (P35503 29-534): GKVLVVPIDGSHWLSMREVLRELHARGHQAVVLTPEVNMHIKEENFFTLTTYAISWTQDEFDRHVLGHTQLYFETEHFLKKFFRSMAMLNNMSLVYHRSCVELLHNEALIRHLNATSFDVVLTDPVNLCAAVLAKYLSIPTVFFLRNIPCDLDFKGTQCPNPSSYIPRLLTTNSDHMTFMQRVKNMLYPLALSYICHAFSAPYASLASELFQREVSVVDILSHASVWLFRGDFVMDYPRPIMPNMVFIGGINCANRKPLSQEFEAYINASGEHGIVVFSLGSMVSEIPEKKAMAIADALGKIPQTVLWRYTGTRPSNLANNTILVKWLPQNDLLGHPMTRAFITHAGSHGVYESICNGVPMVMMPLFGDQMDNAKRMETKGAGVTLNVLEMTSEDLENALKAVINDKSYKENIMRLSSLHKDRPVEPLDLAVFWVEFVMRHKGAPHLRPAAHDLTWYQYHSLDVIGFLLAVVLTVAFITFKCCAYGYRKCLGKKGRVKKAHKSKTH
Briefly: Inhibition of UGT1A3 (chenodeoxy cholic acid glucuronidation) in human liver microsomes. Type of data set: in vitro ADME. The following applies: substrate 15 μM chenodeoxy cholic acid, mean (minimum–maximum). As to the method: (§1) Their IC50 values were compared to that of sauchinone. […] UGT-mediated activities in the presence of sauchinone as an inhibitor were expressed as percentages of corresponding control values (in absence of sauchinone). From percentages of control activity versus inhibitor concentrations, a sigmoid shaped curve was fitted to the data and IC50 as an enzyme inhibition parameter was calculated by fitting the Hill equation to the data using GraphPad Prism 5 (GraphPad Software Inc., San Diego, CA, USA).
For orientation: Microsomes from liver hold many membrane-bound enzymes, among them those of drug oxidation.

Details of data set [2]: method as in PMID 25747980. The note with it: mice; oral administration of 100 mg/kg sauchinone; read-out: Cmax in mice plasma; cited from earlier work.
A further data set has as its target T2, UGT1A1 (Homo sapiens, UniProt P22309).
T2 construct: The reaction mixture containing 0.25 mg/mL protein of HLM; tissue Corning Life Sciences 452156; host or cells: pooled human liver microsomes, 50 donors
T2 sequence (P22309 26-533): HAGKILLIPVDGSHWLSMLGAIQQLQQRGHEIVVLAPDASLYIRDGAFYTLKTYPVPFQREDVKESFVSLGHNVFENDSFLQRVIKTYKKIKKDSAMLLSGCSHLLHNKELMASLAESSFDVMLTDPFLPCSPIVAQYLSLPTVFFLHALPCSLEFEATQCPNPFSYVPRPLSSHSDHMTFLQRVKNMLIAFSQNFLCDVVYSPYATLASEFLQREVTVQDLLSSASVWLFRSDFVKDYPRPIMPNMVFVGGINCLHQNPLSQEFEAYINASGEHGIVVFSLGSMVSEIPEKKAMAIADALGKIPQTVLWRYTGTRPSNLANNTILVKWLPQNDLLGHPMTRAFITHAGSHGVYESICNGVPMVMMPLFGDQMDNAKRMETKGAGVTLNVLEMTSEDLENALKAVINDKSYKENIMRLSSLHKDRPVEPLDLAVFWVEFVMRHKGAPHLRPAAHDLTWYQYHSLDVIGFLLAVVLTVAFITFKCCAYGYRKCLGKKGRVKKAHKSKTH
Kind of data set: Inhibition of UGT1A1 (β-estradiol glucuronidation) in human liver microsomes. In kind it is in vitro ADME. The note with it: substrate 10 μM β-estradiol, mean (minimum–maximum). The protocol:
as §1

The subject of data set [3] is Ugt2b7. Kind of data set: Inhibition of Ugt2b7 (zidovudine) in mice liver microsomes. Type of data set: in vitro ADME. The following applies: mouse, pH 7.6, probe zidovudine (100 μM, in UGT substrate cocktail). As to the method:
(§2) Their IC50 values were compared to that of sauchinone. […] Mice were sacrificed and then livers were removed and rinsed with saline. After weighing the livers, they were homogenized with a four-fold volume of ice-cold homogenizing buffer (0.154 M KCl, 50 mM Tris-base, 1 mM EDTA, pH 7.4). After centrifugation for 35 min at 9000× g and 4 °C, the supernatants were centrifuged for 95 min at 100,000× g and at 4 °C. The supernatants were discarded and the pellets were homogenized again with ice-cold homogenizing buffer. These aliquots were stored at −80 °C. The subsequent process to evaluate the inhibitory effects of sauchinone on UGT activities in MLM was the same as those using HLM. UGT-mediated activities in the presence of sauchinone as an inhibitor were expressed as percentages of corresponding control values (in absence of sauchinone). From percentages of control activity versus inhibitor concentrations, a sigmoid shaped curve was fitted to the data and IC50 as an enzyme inhibition parameter was calculated by fitting the Hill equation to the data using GraphPad Prism 5 (GraphPad Software Inc., San Diego, CA, USA).

A further data set concerns the target T3, UGT1A9 (Homo sapiens, UniProt O60656).
T3 construct: The reaction mixture containing 0.25 mg/mL protein of HLM; tissue Corning Life Sciences 452156; host or cells: pooled human liver microsomes, 50 donors
T3 sequence (O60656 26-530): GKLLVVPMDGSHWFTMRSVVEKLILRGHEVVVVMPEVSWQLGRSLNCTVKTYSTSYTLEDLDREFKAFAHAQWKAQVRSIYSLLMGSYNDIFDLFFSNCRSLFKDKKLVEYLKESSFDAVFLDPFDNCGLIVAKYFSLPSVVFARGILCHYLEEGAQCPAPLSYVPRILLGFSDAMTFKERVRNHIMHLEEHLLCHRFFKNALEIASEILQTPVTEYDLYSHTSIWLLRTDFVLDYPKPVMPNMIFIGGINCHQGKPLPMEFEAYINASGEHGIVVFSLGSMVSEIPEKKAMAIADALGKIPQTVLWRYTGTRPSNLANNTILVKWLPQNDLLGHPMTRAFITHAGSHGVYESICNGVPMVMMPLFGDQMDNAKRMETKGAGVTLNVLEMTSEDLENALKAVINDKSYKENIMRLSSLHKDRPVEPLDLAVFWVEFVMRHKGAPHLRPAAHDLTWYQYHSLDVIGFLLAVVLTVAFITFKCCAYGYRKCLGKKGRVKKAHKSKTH
Briefly: Inhibition of UGT1A9 (propofol glucuronidation) in human liver microsomes. Type of data set: in vitro ADME. As to the method:
as §1

Data set [4] has as its system Ugt1a3. Briefly: Inhibition of Ugt1a3 (CDCA) in mice liver microsomes. Type of data set: in vitro ADME. The note with it: mouse, pH 7.6, read-out: IC50 of Ugt1a3-catalyzed CDCA. The protocol: as §2
For data set [5], the system named is Ugt2b7. Kind of data set: Ki for Ugt2b7 in mouse liver microsomes. In kind it is in vitro ADME. The following applies: our unpublished data.

Regarding `C[C@@H]1[C@H]2c3cc4c(cc3O[C@@]35OCOC3=CC(=O)[C@H](C[C@H]1C)[C@@H]25)OCO4` [Sauchinone], the half-inhibitory concentration (IC50) on UGT1A3 [1] is 43.9 µM; against UGT1A1, 8.83 µM; with Ugt2b7 [3] it was 23 µM; on UGT1A9 (substrate 100 μM propofol, mean (minimum–maximum)), more than 200 µM; in the data set on Ugt1a3 [4] it was 79.9 µM. Also, in data set [2], the Cmax is 1530 nM. Moreover, at UGT1A9 (sauchinone up to 200 μM), the “inhibitory effect on UGT1A9 activity” value is recorded as “negligible inhibitory effect”. Further, in the data set with Ugt2b7 [5], the Ki is 3.34 µM.

Broadly, the IC50 is the concentration at which inhibition is half-maximal. Usually Cmax stands for the peak of the concentration-time curve. By Ki is commonly meant the dissociation constant of the complex between target and ligand, obtained from inhibition or displacement. A higher Ki goes with weaker binding.
